The record followed here is paper PMC5218480 (PLoS ONE, 2017).

For the experiment, the system named is MV-4-11 cells. Briefly: Gene expression microarray analysis (Affymetrix PrimeView) and GSEA. In kind it is cell-based, human. Details: RFU PODN (11730768_x_at) / Fold change /veh PODN (11730768_x_at) / RFU LINC00158 (11744669_a_at) / Fold change /veh LINC00158 (11744669_a_at) / RFU DUSP10 (11751237_a_at) / Fold change /veh DUSP10 (11751237_a_at) / RFU ID3 (11757404_x_at) / Fold change /veh ID3 (11757404_x_at) / RFU PLEKHG5 (11737974_s_at) / Fold change /veh PLEKHG5 (11737974_s_at) / RFU LRRC4B (11730491_at) / Fold change /veh LRRC4B (11730491_at) / RFU GIMAP4 (11747438_a_at) / Fold change /veh GIMAP4 (11747438_a_at) / RFU KRT8 (11758183_x_at) / Fold change /veh KRT8 (11758183_x_at) / RFU CNN1 (11734310_a_at) / Fold change /veh CNN1 (11734310_a_at) / RFU VPS37D (11726825_at) / Fold change /veh VPS37D (11726825_at) / RFU C10orf10 (11716522_x_at) / Fold change /veh C10orf10 (11716522_x_at) / RFU KIR2DL2 /// KIR2DL4 /// KIR2DL5A /// KIR2DL5B /// KIR2DS1 /// KIR2DS2 /// KIR2DS3 /// KIR2DS4 /// KIR3DL3 /// KIR3DL3 /// KIR3DS1 (11738374_at) / Fold change /veh KIR2DL2 /// KIR2DL4 /// KIR2DL5A /// KIR2DL5B /// KIR2DS1 /// KIR2DS2 /// KIR2DS3 /// KIR2DS4 /// KIR3DL3 /// KIR3DL3 /// KIR3DS1 (11738374_at) / RFU C1QL1 (11718748_at) / Fold change /veh C1QL1 (11718748_at) / RFU TMPRSS4 (11747572_a_at) / Fold change /veh TMPRSS4 (11747572_a_at) / RFU HAMP (11756126_x_at) / Fold change /veh HAMP (11756126_x_at) / RFU RNFT2 (11725882_a_at) / Fold change /veh RNFT2 (11725882_a_at) / RFU NR4A2 (11747474_a_at) / Fold change /veh NR4A2 (11747474_a_at) / RFU ABCC12 (11746883_a_at) / Fold change /veh ABCC12 (11746883_a_at) / RFU TMEM136 (11760407_x_at) / Fold change /veh TMEM136 (11760407_x_at) / RFU CLDN22 /// WWC2 (11732394_at) / Fold change /veh CLDN22 /// WWC2 (11732394_at) / RFU HLA-DPB1 (11760878_x_at) / Fold change /veh HLA-DPB1 (11760878_x_at) / RFU SPINT1 (11716480_a_at) / Fold change /veh SPINT1 (11716480_a_at) / RFU GAP43 (11754022_s_at) / Fold change /veh GAP43 (11754022_s_at) / RFU A4GNT (11735810_at) / Fold change /veh A4GNT (11735810_at) / RFU PRB3 (11715151_x_at) / Fold change /veh PRB3 (11715151_x_at) / RFU TUBB4B (11761932_at) / Fold change /veh TUBB4B (11761932_at) / RFU CAPN14 (11732068_a_at) / Fold change /veh CAPN14 (11732068_a_at) / RFU TMCC2 (11721928_a_at) / Fold change /veh TMCC2 (11721928_a_at) / RFU IRGQ (11745062_a_at) / Fold change /veh IRGQ (11745062_a_at) / RFU FAM174B (11720279_a_at) / Fold change /veh FAM174B (11720279_a_at) / RFU TMPRSS4 (11748680_a_at) / Fold change /veh TMPRSS4 (11748680_a_at) / RFU FAM212B (11763350_a_at) / Fold change /veh FAM212B (11763350_a_at) / RFU PLEKHG5 (11743358_a_at) / Fold change /veh PLEKHG5 (11743358_a_at) / RFU ZSCAN30 (11745921_a_at) / Fold change /veh ZSCAN30 (11745921_a_at) / RFU CMKLR1 (11741424_a_at) / Fold change /veh CMKLR1 (11741424_a_at) / RFU LOC101060620 /// MAPK8IP1 (11723275_at) / Fold change /veh LOC101060620 /// MAPK8IP1 (11723275_at) / RFU SPTSSB (11747773_x_at) / Fold change /veh SPTSSB (11747773_x_at) / RFU PRSS12 (11739890_at) / Fold change /veh PRSS12 (11739890_at) / RFU BIN1 (11741810_x_at) / Fold change /veh BIN1 (11741810_x_at) / RFU WNT11 (11732464_a_at) / Fold change /veh WNT11 (11732464_a_at) / RFU C10orf10 (11716521_a_at) / Fold change /veh C10orf10 (11716521_a_at) / RFU C5orf56 (11738089_at) / Fold change /veh C5orf56 (11738089_at) / RFU CYB561 (11721691_x_at) / Fold change /veh CYB561 (11721691_x_at) / RFU ANKRD19P (11752326_a_at) / Fold change /veh ANKRD19P (11752326_a_at) / RFU OR2T12 /// OR2T33 /// OR2T8 (11738714_s_at) / Fold change /veh OR2T12 /// OR2T33 /// OR2T8 (11738714_s_at) / RFU VCAN (11748164_a_at) / Fold change /veh VCAN (11748164_a_at) / RFU JSRP1 (11732532_at) / Fold change /veh JSRP1 (11732532_at) / RFU KRTAP10-11 (11738290_x_at) / Fold change /veh KRTAP10-11 (11738290_x_at) / RFU MYO3A (11730013_a_at) / Fold change /veh MYO3A (11730013_a_at) / RFU EBF3 (11725865_a_at) / Fold change /veh EBF3 (11725865_a_at) / RFU CAMK2N1 (11719241_x_at) / Fold change /veh CAMK2N1 (11719241_x_at) / RFU C5orf56 (11738088_a_at) / Fold change /veh C5orf56 (11738088_a_at) / RFU OLFML3 (11715873_a_at) / Fold change /veh OLFML3 (11715873_a_at) / RFU LOC100653217 /// NTM (11731650_a_at) / Fold change /veh LOC100653217 /// NTM (11731650_a_at) / RFU MAPK11 (11762145_a_at) / Fold change /veh MAPK11 (11762145_a_at) / RFU FIZ1 (11724087_x_at) / Fold change /veh FIZ1 (11724087_x_at) / RFU OASL (11726364_x_at) / Fold change /veh OASL (11726364_x_at) / RFU SOX15 (11748057_x_at) / Fold change /veh SOX15 (11748057_x_at) / RFU CD79A (11719716_a_at) / Fold change /veh CD79A (11719716_a_at) / RFU HIST1H1D (11736915_at) / Fold change /veh HIST1H1D (11736915_at) / RFU CASKIN2 (11723855_a_at) / Fold change /veh CASKIN2 (11723855_a_at) / RFU LOC730098 (11760151_x_at) / Fold change /veh LOC730098 (11760151_x_at) / RFU OR4N2 (11742367_at) / Fold change /veh OR4N2 (11742367_at) / RFU PRRT2 (11749266_a_at) / Fold change /veh PRRT2 (11749266_a_at) / RFU SNX32 (11753110_a_at) / Fold change /veh SNX32 (11753110_a_at) / RFU CDHR5 (11726645_a_at) / Fold change /veh CDHR5 (11726645_a_at) / RFU RCAN1 (11760418_a_at) / Fold change /veh RCAN1 (11760418_a_at) / RFU FAM167A (11723789_a_at) / Fold change /veh FAM167A (11723789_a_at) / RFU FAM26E (11764081_at) / Fold change /veh FAM26E (11764081_at) / RFU ISYNA1 (11749810_s_at) / Fold change /veh ISYNA1 (11749810_s_at) / RFU ACY1 (11761880_at) / Fold change /veh ACY1 (11761880_at) / RFU 11764098_at / Fold change /veh 11764098_at / RFU SAMD14 (11745864_x_at) / Fold change /veh SAMD14 (11745864_x_at) / RFU NPB (11741838_a_at) / Fold change /veh NPB (11741838_a_at) / RFU TMPRSS6 (11731388_a_at) / Fold change /veh TMPRSS6 (11731388_a_at) / RFU KRTAP10-2 (11738614_at) / Fold change /veh KRTAP10-2 (11738614_at) / RFU ARHGAP8 /// PRR5-ARHGAP8 (11727945_x_at) / Fold change /veh ARHGAP8 /// PRR5-ARHGAP8 (11727945_x_at) / RFU KRTAP5-7 /// NADSYN1 (11734609_at) / Fold change /veh KRTAP5-7 /// NADSYN1 (11734609_at) / RFU RASL12 (11751679_a_at) / Fold change /veh RASL12 (11751679_a_at) / RFU CDKN2B (11736163_a_at) / Fold change /veh CDKN2B (11736163_a_at) / RFU PRF1 (11729649_at) / Fold change /veh PRF1 (11729649_at) / RFU, ZNF638 /// ZNF638-IT1 / Fold change vs veh, ZNF638 /// ZNF638-IT1 / RFU, PANK3 / Fold change vs veh, PANK3 / RFU, SH3YL1 / Fold change vs veh, SH3YL1 / RFU, ZEB2 / Fold change vs veh, ZEB2 / RFU, NRIP1 / Fold change vs veh, NRIP1 / RFU, PTTG1IP / Fold change vs veh, PTTG1IP / RFU, CAPN2 / Fold change vs veh, CAPN2 / RFU, MED14 / Fold change vs veh, MED14 / RFU, SNORA58 / Fold change vs veh, SNORA58 / RFU, C1orf63 / Fold change vs veh, C1orf63 / RFU, LRRFIP1 / Fold change vs veh, LRRFIP1 / RFU, NDUFAF7 / Fold change vs veh, NDUFAF7 / RFU, SLC12A2 / Fold change vs veh, SLC12A2 / RFU, IBTK / Fold change vs veh, IBTK / RFU, ESF1 / Fold change vs veh, ESF1 / Fold change vs veh, TMEM50B / RFU, TAOK1 / Fold change vs veh, TAOK1 / RFU, ACBD3 / Fold change vs veh, ACBD3 / RFU, TMA16 / Fold change vs veh, TMA16 / RFU, RWDD3 / Fold change vs veh, RWDD3 / RFU, BCAT1 / Fold change vs veh, BCAT1 / RFU, EDEM3 / Fold change vs veh, EDEM3 / RFU, TMEM33 / Fold change vs veh, TMEM33 / RFU, WDR75 / Fold change vs veh, WDR75 / RFU, AHCTF1 / Fold change vs veh, AHCTF1 / RFU, TFRC / Fold change vs veh, TFRC / RFU, ZDHHC17 / Fold change vs veh, ZDHHC17 / RFU, NOM1 / Fold change vs veh, NOM1 / RFU, ARL8B / Fold change vs veh, ARL8B / RFU, ZBTB11 / Fold change vs veh, ZBTB11 / RFU, TAMM41 / Fold change vs veh, TAMM41 / RFU, KIAA1704 /// LOC100996395 / Fold change vs veh, KIAA1704 /// LOC100996395 / RFU, ING1 / Fold change vs veh, ING1 / RFU, TRMT61B / Fold change vs veh, TRMT61B / RFU, FUBP3 / Fold change vs veh, FUBP3 / RFU, TP53 / Fold change vs veh, TP53 / RFU, TNKS2 / Fold change vs veh, TNKS2 / RFU, ZFP14 / Fold change vs veh, ZFP14 / RFU, ACTR2 / Fold change vs veh, ACTR2 / RFU, PPP3R1 / Fold change vs veh, PPP3R1 / RFU, PIK3R1 / Fold change vs veh, PIK3R1 / RFU, HNRNPA1 / Fold change vs veh, HNRNPA1 / RFU, RNF170 / Fold change vs veh, RNF170 / RFU, ZNF28 / Fold change vs veh, ZNF28 / RFU, RNGTT / Fold change vs veh, RNGTT / RFU, OGT / Fold change vs veh, OGT / RFU, BRD1 / Fold change vs veh, BRD1 / RFU, MARS / Fold change vs veh, MARS / RFU, ZNF655 / Fold change vs veh, ZNF655 / RFU, FAHD1 / Fold change vs veh, FAHD1 / RFU, BDP1 / Fold change vs veh, BDP1 / RFU, LRRCC1 / Fold change vs veh, LRRCC1 / RFU, ARID1A / Fold change vs veh, ARID1A / RFU, ZNF146 / Fold change vs veh, ZNF146 / RFU, ZNF330 / Fold change vs veh, ZNF330 / RFU, GPN3 / Fold change vs veh, GPN3 / RFU, C9orf123 / Fold change vs veh, C9orf123 / RFU, N4BP2L2 / Fold change vs veh, N4BP2L2 / RFU, ARFIP1 / Fold change vs veh, ARFIP1 / RFU, FAM179B / Fold change vs veh, FAM179B / RFU, BCL10 / Fold change vs veh, BCL10 / RFU, UHRF1BP1L / Fold change vs veh, UHRF1BP1L / RFU, BET1 / Fold change vs veh, BET1 / RFU, CNOT2 / Fold change vs veh, CNOT2 / RFU, ZNF268 / Fold change vs veh, ZNF268 / Fold change vs veh, ZNF507 / RFU, DGCR2 / Fold change vs veh, DGCR2 / RFU, WDSUB1 / Fold change vs veh, WDSUB1 / Fold change vs veh, HSP90B1 /// MIR3652 / RFU, ADSS / Fold change vs veh, ADSS / RFU, GK / Fold change vs veh, GK / RFU, ZNF148 / Fold change vs veh, ZNF148 / RFU, TAF9 / Fold change vs veh, TAF9 / RFU, SLC1A5 / Fold change vs veh, SLC1A5 / RFU, SLMO2 / Fold change vs veh, SLMO2 / RFU, ABCC4 / Fold change vs veh, ABCC4 / RFU, LOC101060439 /// RAP1B / Fold change vs veh, LOC101060439 /// RAP1B / RFU, RFX7 / Fold change vs veh, RFX7 / RFU, GTPBP10 / Fold change vs veh, GTPBP10 / RFU, CNEP1R1 / Fold change vs veh, CNEP1R1 / RFU, BIVM-ERCC5 /// ERCC5 / Fold change vs veh, BIVM-ERCC5 /// ERCC5 / RFU, ILF3 / Fold change vs veh, ILF3 / RFU 11762660_at / Fold change /veh 11762660_at / RFU VCAN (11757783_s_at) / Fold change /veh VCAN (11757783_s_at) / RFU DDX43 (11728927_at) / Fold change /veh DDX43 (11728927_at) / RFU KRT8 (11758188_x_at) / Fold change /veh KRT8 (11758188_x_at) / RFU NKD1 (11759106_at) / Fold change /veh NKD1 (11759106_at) / RFU SRD5A1 (11742802_a_at) / Fold change /veh SRD5A1 (11742802_a_at) / RFU TPSAB1 /// TPSB2 (11721975_s_at) / Fold change /veh TPSAB1 /// TPSB2 (11721975_s_at) / RFU GSTM3 (11746129_a_at) / Fold change /veh GSTM3 (11746129_a_at) / RFU IL23R (11737362_x_at) / Fold change /veh IL23R (11737362_x_at) / RFU TMEM51 (11727254_a_at) / Fold change /veh TMEM51 (11727254_a_at) / RFU PIWIL2 (11732686_x_at) / Fold change /veh PIWIL2 (11732686_x_at) / RFU ORM1 (11744905_x_at) / Fold change /veh ORM1 (11744905_x_at) / RFU CCDC152 (11743942_at) / Fold change /veh CCDC152 (11743942_at) / RFU ECM1 (11717891_a_at) / Fold change /veh ECM1 (11717891_a_at) / RFU IL23R (11748794_a_at) / Fold change /veh IL23R (11748794_a_at) / RFU TNFAIP8L3 (11732012_x_at) / Fold change /veh TNFAIP8L3 (11732012_x_at) / RFU MBOAT4 (11741988_at) / Fold change /veh MBOAT4 (11741988_at) / RFU 11764193_at / Fold change /veh 11764193_at / RFU TMEM53 (11763286_at) / Fold change /veh TMEM53 (11763286_at) / RFU MAGEB2 (11727129_at) / Fold change /veh MAGEB2 (11727129_at) / RFU TMEM200A (11744735_a_at) / Fold change /veh TMEM200A (11744735_a_at) / RFU CCDC152 (11751479_a_at) / Fold change /veh CCDC152 (11751479_a_at) / RFU FAM211A (11726209_a_at) / Fold change /veh FAM211A (11726209_a_at) / RFU RGS16 (11746705_a_at) / Fold change /veh RGS16 (11746705_a_at) / RFU VCAN (11755009_s_at) / Fold change /veh VCAN (11755009_s_at) / RFU RHOB (11743442_s_at) / Fold change /veh RHOB (11743442_s_at) / RFU RGS16 (11720943_a_at) / Fold change /veh RGS16 (11720943_a_at) / RFU RGS16 (11720944_at) / Fold change /veh RGS16 (11720944_at) / RFU, VPS4B / Fold change vs veh, VPS4B / RFU, CREB1 / Fold change vs veh, CREB1 / RFU, DNAJC13 / Fold change vs veh, DNAJC13 / RFU, GNAQ / Fold change vs veh, GNAQ / RFU, CDK5R1 / Fold change vs veh, CDK5R1 / RFU, ZRANB3 / Fold change vs veh, ZRANB3 / RFU, CUL4A / Fold change vs veh, CUL4A / RFU, CCNY / Fold change vs veh, CCNY / RFU, UFL1 / Fold change vs veh, UFL1 / RFU, COG3 / Fold change vs veh, COG3 / RFU, DIAPH2 / Fold change vs veh, DIAPH2 / RFU, SKA2 / Fold change vs veh, SKA2 / RFU, AFF3 / Fold change vs veh, AFF3 / RFU, LMF1 / Fold change vs veh, LMF1 / RFU, IPO11 / Fold change vs veh, IPO11 / RFU, DFFB / Fold change vs veh, DFFB / RFU, FOXP1 / Fold change vs veh, FOXP1 / RFU, CARD8 / Fold change vs veh, CARD8 / RFU, STRN3 / Fold change vs veh, STRN3 / RFU, ADK / Fold change vs veh, ADK / RFU, RASSF2 / Fold change vs veh, RASSF2 / RFU, WIPF1 / Fold change vs veh, WIPF1 / RFU, LARP1B / Fold change vs veh, LARP1B / RFU, RASA1 / Fold change vs veh, RASA1 / RFU, RB1 / Fold change vs veh, RB1 / RFU, PPFIA1 / Fold change vs veh, PPFIA1 / RFU, MAT2A / Fold change vs veh, MAT2A / RFU, CCT5 / Fold change vs veh, CCT5 / RFU, WDR92 / Fold change vs veh, WDR92 / RFU, CUX1 / Fold change vs veh, CUX1 / RFU, TTC7A / Fold change vs veh, TTC7A / RFU, TMEM135 / Fold change vs veh, TMEM135 / RFU, DEPTOR / Fold change vs veh, DEPTOR / RFU, CPM / Fold change vs veh, CPM / RFU, DNAJB6 / Fold change vs veh, DNAJB6 / RFU, CACNA2D3 / Fold change vs veh, CACNA2D3 / RFU, DTX4 / Fold change vs veh, DTX4 / RFU, TFCP2 / Fold change vs veh, TFCP2 / RFU, GMCL1 /// GMCL1P1 / Fold change vs veh, GMCL1 /// GMCL1P1 / RFU, AEBP2 / Fold change vs veh, AEBP2 / RFU, SNHG1 /// SNORD22 /// SNORD25 /// SNORD26 /// SNORD27 /// SNORD28 /// SNORD29 /// SNORD31 / Fold change vs veh, SNHG1 /// SNORD22 /// SNORD25 /// SNORD26 /// SNORD27 /// SNORD28 /// SNORD29 /// SNORD31 / Fold change (Aza/veh), C12orf56 (ProbeSet 11735607_a_at) / Fold change (ACY-1035/veh), C12orf56 (ProbeSet 11735607_a_at) / Fold change (Aza/veh), FGFR1OP (ProbeSet 11751329_s_at) / Fold change (ACY-1035/veh), FGFR1OP (ProbeSet 11751329_s_at) / Fold change (Aza/veh), VPS36 (ProbeSet 11739960_a_at) / Fold change (ACY-1035/veh), VPS36 (ProbeSet 11739960_a_at) / RFU SYPL1 (11715823_x_at) / Fold change /veh SYPL1 (11715823_x_at) / RFU IGFBP7 (11715501_s_at) / Fold change /veh IGFBP7 (11715501_s_at) / RFU REEP3 (11722064_at) / Fold change /veh REEP3 (11722064_at) / RFU IGLL1 (11728026_x_at) / Fold change /veh IGLL1 (11728026_x_at): dose or concentration left out as unconfirmed. The following applies: ProbeSet 11743362_s_at; LIST B.

As to `Nc1ncn([C@@H]2O[C@H](CO)[C@@H](O)[C@H]2O)c(=O)n1` [azacitidine], the “RFU, ADSS” value is listed as 624.28 RFU.
